Experimental data published in patent US6472418B1, “Non-peptide NK1 receptors antagonists” (Warner-Lambert Company, priority 1998, dated 2002).

Each molecule was assayed against T1, Human NK1 Receptor (Homo sapiens, UniProt P25103) (assay: In Vitro Human NK1 Receptor Binding Assay ([125I]Bolton-Hunter substance P displacement, IM9 cells)). Conditions: Human lymphoma IM9 cells, [125I]Bolton-Hunter substance P (0.05-0.1 nM), 50 min at 21° C.; Table 1; read-out: NK1 binding IC50.
T1 construct: endogenous in cells; host or cells: Human lymphoma IM9 cells (whole cells)
T1 sequence (P25103 whole entry): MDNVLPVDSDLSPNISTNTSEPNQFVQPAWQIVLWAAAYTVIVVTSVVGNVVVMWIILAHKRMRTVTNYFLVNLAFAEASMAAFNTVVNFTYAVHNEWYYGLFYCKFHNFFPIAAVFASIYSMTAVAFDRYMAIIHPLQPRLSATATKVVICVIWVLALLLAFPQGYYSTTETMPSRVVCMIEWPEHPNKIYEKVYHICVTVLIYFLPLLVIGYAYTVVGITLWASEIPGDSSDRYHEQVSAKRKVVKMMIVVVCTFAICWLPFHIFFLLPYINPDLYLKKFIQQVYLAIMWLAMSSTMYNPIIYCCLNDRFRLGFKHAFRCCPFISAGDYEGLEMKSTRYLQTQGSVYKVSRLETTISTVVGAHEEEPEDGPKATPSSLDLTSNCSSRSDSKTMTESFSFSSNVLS
Summary of the method: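 Radioligand displacement on whole IM9 human lymphoma cells (2.5×10^6 cells/mL) using [125I]Bolton-Hunter substance P (0.05-0.1 nM), 50 min at 21° C in Tris pH 7.4/MnCl2 buffer with protease inhibitors. Non-specific binding defined by […] [Sar9, Met(O2)11] substance P. Filtration, gamma counting, iterative curve fitting.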
For `C[C@H](NC(=O)[C@@H](Cc1c[nH]c2ccccc12)NCc1cccc(OC(F)(F)F)c1)c1ccccc1` (relative stereo) [Example 16, 3-(1H-Indol-3-yl)-N-(1-phenyl-ethyl)-2-(3-trifluoromethoxy-benzylamino)-propionamide, [R-(R*,S*)]], the IC50 was 9.1 nM.

Same assay, conditions: Human lymphoma IM9 cells, [125I]Bolton-Hunter substance P; Table 3, array-synthesis products; read-out: IC50 (nM) hNK1
`O=C(NCCc1cccc(F)c1)C(Cc1c[nH]c2ccccc12)NCc1cc2ccccc2o1` (centres unmarked) [Example 293, 2-[(Benzofuran-2-ylmethyl)-amino]-N-[2-(3-fluoro-phenyl)-ethyl]-3-(1H-indol-3-yl)-propionamide] was tested, and the IC50 was 55 nM. Molecule `O=C(NCCc1ccc(F)cc1)C(Cc1c[nH]c2ccccc12)NCc1cc2ccccc2o1` (centres unmarked) [Example 284, 2-[(Benzofuran-2-ylmethyl)-amino]-N-[2-(4-fluoro-phenyl)-ethyl]-3-(1H-indol-3-yl)-propionamide] has an IC50 of 62 nM.

Same assay, conditions: Table 4; [125I]Bolton-Hunter substance P displacement, human IM9 cells; read-out: IC50 (nM) hNK1
`CC(NC(=O)C(C)(Cc1c[nH]c2ccccc12)NCc1cnc2ccccc2c1)c1ccccc1` (centres unmarked) [compound 315, 3-(1H-Indol-3-yl)-2-methylN-(1-phenyl-ethyl)-2-[(quinolin-3-ylmethyl)-amino]-propionamide] was tested, and the IC50 was 1070 nM. `CC(NC(=O)C(C)(Cc1c[nH]c2ccccc12)NCc1ccccc1OCc1ccccn1)c1ccccc1` (centres unmarked) [compound 323, 3-(1H-Indol-3-yl)-2-methyl-N-(1-phenyl-ethyl)-2-[2-(pyridin-2-ylmethoxy)-benzylamino]-propionamide] gave an IC50 of 3180 nM.

Same assay, conditions: human NK1 receptor, IM9 cells, [125I]Bolton-Hunter substance P; read-out: IC50 (nM) hNK1
For `CC(Cc1c[nH]c2ccccc12)(NCc1cc2ccccc2o1)C(=O)NCc1ccccc1F` (centres unmarked) [compound 180, 2-[(Benzofuran-2-ylmethyl)-amino]-N-(2-fluoro-benzyl)-3-(1H-indol-3-yl)-2-methyl-propionamide], the IC50 was 266 nM. Molecule `CC(NC(=O)C(C)(Cc1c[nH]c2ccccc12)NCc1cc2ccccc2o1)c1ccccc1` (centres unmarked) [compound 42, 2-[(Benzofuran-2-ylmethyl)-amino]-3-(1H-indol-3-yl)-2-methyl-N-(1-phenyl-ethyl)-propionamide] has an IC50 of 261 nM. In the case of `CC(Cc1c[nH]c2ccccc12)(NCc1cc2ccccc2o1)C(=O)NCCCN1CCN(c2ccccn2)CC1` (centres unmarked) [compound 87, 2-[(Benzofuran-2-ylmethyl)-amino]-3-(1H-indol-3-yl)-2-methyl-N-[3-(4-pyridin-2-yl-piperazin-1-yl)-propyl]-propionamide], the IC50 is reported as > 10000 nM. For `CC(Cc1c[nH]c2ccccc12)(NCc1cc2ccccc2o1)C(=O)NCC1(c2ccco2)CCC1` (centres unmarked) [compound 117, 2-[(Benzofuran-2-ylmethyl)-amino]-N-(1-furan-2-yl-cyclobutylmethyl)-3-(1H-indol-3-yl)-2-methyl-propionamide], the IC50 was > 10000 nM. With `Cc1cccc(CNC(=O)C(C)(Cc2c[nH]c3ccccc23)NCc2cc3ccccc3o2)c1` (centres unmarked) [compound 129, 2-[(Benzofuran-2-ylmethyl)-amino]-3-(1H-indol-3-yl)-2-methyl-N-(3-methyl-benzyl)-propionamide] the IC50 was 43 nM. `CC(Cc1c[nH]c2ccccc12)(NCc1cc2ccccc2o1)C(=O)NCC1CC2CCC1C2` (centres unmarked) [compound 165, 2-[(Benzofuran-2-ylmethyl)-amino]-N-bicyclo[2.2.1]hept-2-ylmethyl-3-(1H-indol-3-yl)-2-methyl-propionamide] was tested, and the IC50 was > 10000 nM. `Cc1ccc(CNC(=O)C(C)(Cc2c[nH]c3ccccc23)NCc2cc3ccccc3o2)cc1` (centres unmarked) [compound 71, 2-[(Benzofuran-2-ylmethyl)-amino]-3-(1H-indol-3-yl)-2-methyl-N-(4-methyl-benzyl)-propionamide] showed an IC50 of 144 nM. Molecule `CC(NC(=O)C(C)(Cc1c[nH]c2ccccc12)NCc1cc2ccccc2o1)c1ccccc1N` (centres unmarked) [compound 36, N-[1-(2-Amino-phenyl)-ethyl]-2-[(benzofuran-2-ylmethyl)-amino]-3-(1H-indol-3-yl)-2-methyl-propionamide] has an IC50 of 1620 nM. With `CC(Cc1c[nH]c2ccccc12)(NCc1cc2ccccc2o1)C(=O)NCCc1cccnc1` (centres unmarked) [compound 145, 2-[(Benzofuran-2-ylmethyl)-amino]-3-(1H-indol-3-yl)-2-methyl-N-(2-pyridin-3-yl-ethyl)-propionamide] the IC50 was 1300 nM.
